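48-hour exposure; five concentrations; linearly interpolated endpoints. Here, GI50 denotes the concentration required for 50% inhibition of growth.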 Calls of active or inactive are those of the source. Cut-off read from the data, not from the text of the source: active = GI50 up to about 1.1 µM and inactive = higher.
Legend:
Assay in all cases: inhibition of tumour cell growth, NCI panel, 48 h
KM12 = system: KM12
IGROV-1 = system: IGROV-1
Malme-3M = system: Malme-3M
HL-60 = system: HL-60
LOX IMVI = system: LOX IMVI
SK-MEL-2 = system: SK-MEL-2
SNB-19 = system: SNB-19
SW-620 = system: SW-620
SF-268 = system: SF-268
SNB-75 = system: SNB-75
NCI-H522 = system: NCI-H522
A549 = system: A549
NCI-H23 = system: NCI-H23
MOLT-4 = system: MOLT-4
EKVX = system: EKVX
UACC-62 = system: UACC-62
HOP-62 = system: HOP-62
786-0 = system: 786-0
UO-31 = system: UO-31
HCT-15 = system: HCT-15

| SMILES | GI50 (KM12) | GI50 (IGROV-1) | GI50 (Malme-3M) | GI50 (HL-60) | GI50 (LOX IMVI) | GI50 (SK-MEL-2) | GI50 (SNB-19) | GI50 (SW-620) | GI50 (SF-268) | GI50 (SNB-75) | GI50 (NCI-H522) | GI50 (A549) | GI50 (NCI-H23) | GI50 (MOLT-4) | GI50 (EKVX) | GI50 (UACC-62) | GI50 (HOP-62) | GI50 (786-0) | GI50 (UO-31) | GI50 (HCT-15) [µM] |
| --- | --- | --- | --- | --- | --- | --- | --- | --- | --- | --- | --- | --- | --- | --- | --- | --- | --- | --- | --- | --- |
| c1cnc2c3[nH]cc4[nH]c5ccccc5c4c-3nc2c1 | 36.1 µM (inactive) | > 100 µM (inactive) | 28.4 µM (inactive) | 76 µM (inactive) | 52.5 µM (inactive) | 30.7 µM (inactive) | > 100 µM (inactive) | 55.2 µM (inactive) | 84.5 µM (inactive) | 51.9 µM (inactive) | > 100 µM (inactive) | > 100 µM (inactive) | > 100 µM (inactive) | 22.7 µM (inactive) | > 100 µM (inactive) | > 100 µM (inactive) | 40.4 µM (inactive) | 44.4 µM (inactive) | 42.4 µM (inactive) | 67.5 |
| Cc1cc(=O)oc2c(CN(CCCl)CCCl)c(O)ccc12 | 78.7 µM (inactive) | 55.7 µM (inactive) | 34.1 µM (inactive) | 4.3 µM (inactive) | 10.7 µM (inactive) | > 100 µM (inactive) | 24.3 µM (inactive) | 14 µM (inactive) | 59.3 µM (inactive) | 53.5 µM (inactive) | 14.5 µM (inactive) | 27.5 µM (inactive) | 43.3 µM (inactive) | 4.99 µM (inactive) | > 100 µM (inactive) | 5.56 µM (inactive) | 26.5 µM (inactive) | 33.4 µM (inactive) | 41.8 µM (inactive) | 56.9 |
| Cc1ccc(-c2ccc3c(c2)Sc2ccccc2O3)n1C | 0.257 µM (active) | 0.232 µM (active) | 0.0984 µM (active) | 0.125 µM (active) | 0.524 µM (active) | 0.13 µM (active) | 0.607 µM (active) | 0.264 µM (active) | 0.791 µM (active) | 0.238 µM (active) | 0.0564 µM (active) | 0.675 µM (active) | 0.908 µM (active) | 0.822 µM (active) | 0.618 µM (active) | 0.0593 µM (active) | 0.614 µM (active) | 0.553 µM (active) | 0.67 µM (active) | 0.143 |
| Clc1cc(OCc2nn3c(Cc4ccccc4)nnc3s2)c(Cl)cc1OCc1nn2c(Cc3ccccc3)nnc2s1 | > 100 µM (inactive) | 36 µM (inactive) | > 100 µM (inactive) | 68.1 µM (inactive) | > 100 µM (inactive) | > 100 µM (inactive) | 27.9 µM (inactive) | > 100 µM (inactive) | 43.8 µM (inactive) | 1.32 µM (inactive) | > 100 µM (inactive) | 94.8 µM (inactive) | 23.9 µM (inactive) | 3.77 µM (inactive) | 54.1 µM (inactive) | > 100 µM (inactive) | 33.3 µM (inactive) | 33.7 µM (inactive) | 47.8 µM (inactive) | 7.05 |
| Cc1cc(Cl)ccc1C1OC(=O)c2c1ccc1ccccc21 (stereo not given) | > 100 µM (inactive) | > 100 µM (inactive) | > 100 µM (inactive) | > 100 µM (inactive) | > 100 µM (inactive) | > 100 µM (inactive) | > 100 µM (inactive) | > 100 µM (inactive) | > 100 µM (inactive) | 29.9 µM (inactive) | > 100 µM (inactive) | > 100 µM (inactive) | > 100 µM (inactive) | > 100 µM (inactive) | > 100 µM (inactive) | > 100 µM (inactive) | > 100 µM (inactive) | 97.5 µM (inactive) | > 100 µM (inactive) | > 100 |
| CCCCC(=O)OC[n+]1ccc2c(C)c3[nH]c4ccc(OC)cc4c3c(C)c2c1 | 0.412 µM (active) | 0.284 µM (active) | 1.16 µM (inactive) | 0.422 µM (active) | 0.271 µM (active) | 2.32 µM (inactive) | 0.364 µM (active) | 0.14 µM (active) | 0.344 µM (active) | 1.07 µM (active) | 0.695 µM (active) | 0.308 µM (active) | 0.536 µM (active) | 0.0396 µM (active) | 1.14 µM (inactive) | 0.979 µM (active) | 0.47 µM (active) | 0.118 µM (active) | 1.04 µM (active) | 0.166 |
| CC(C)(C)C(O)CC(O)(C(F)(F)F)C(F)(F)F (stereo not given) | > 100 µM (inactive) | > 100 µM (inactive) | > 100 µM (inactive) | > 100 µM (inactive) | > 100 µM (inactive) | > 100 µM (inactive) | > 100 µM (inactive) | > 100 µM (inactive) | > 100 µM (inactive) | 56.9 µM (inactive) | > 100 µM (inactive) | > 100 µM (inactive) | > 100 µM (inactive) | > 100 µM (inactive) | > 100 µM (inactive) | > 100 µM (inactive) | > 100 µM (inactive) | > 100 µM (inactive) | > 100 µM (inactive) | > 100 |
| O=Cc1ccc(-c2nccc3c2[nH]c2ccccc23)o1 | > 100 µM (inactive) | > 73.3 µM (inactive) | > 100 µM (inactive) | 74.8 µM (inactive) | > 56.2 µM (inactive) | > 95.5 µM (inactive) | > 100 µM (inactive) | > 100 µM (inactive) | > 100 µM (inactive) | > 100 µM (inactive) | 64.4 µM (inactive) | 73.1 µM (inactive) | > 100 µM (inactive) | > 94.8 µM (inactive) | > 100 µM (inactive) | 26.9 µM (inactive) | 42.8 µM (inactive) | > 89.9 µM (inactive) | > 100 µM (inactive) | > 100 |
| O=C1OCOC2(CCCC2)C1c1ccccc1 (stereo not given) | > 100 µM (inactive) | > 100 µM (inactive) | > 100 µM (inactive) | > 100 µM (inactive) | > 100 µM (inactive) | > 100 µM (inactive) | > 100 µM (inactive) | > 100 µM (inactive) | > 100 µM (inactive) | > 100 µM (inactive) | > 100 µM (inactive) | > 100 µM (inactive) | > 100 µM (inactive) | > 100 µM (inactive) | > 100 µM (inactive) | > 100 µM (inactive) | > 100 µM (inactive) | > 100 µM (inactive) | > 100 µM (inactive) | > 100 |
| CC(=O)NC1C(OCc2ccccc2)OC(CO)C(O)C1OC(C)C(=O)NC(C)C(=O)NC(CCC(=O)NCCCCNc1c2ccccc2nc2cccc([N+](=O)[O-])c12)C(N)=O (stereo not given) | 0.0482 µM (active) | 0.24 µM (active) | 0.0348 µM (active) | 0.027 µM (active) | 0.216 µM (active) | 0.0944 µM (active) | 0.021 µM (active) | 0.00741 µM (active) | 0.0357 µM (active) | 0.18 µM (active) | 0.0705 µM (active) | 0.0404 µM (active) | 0.0457 µM (active) | 0.148 µM (active) | 0.0625 µM (active) | 0.0286 µM (active) | 0.0791 µM (active) | 0.0198 µM (active) | 0.0738 µM (active) | 0.00893 |
| Cn1c(N2CCCC2)c(C=O)c(=O)n(C)c1=O | > 100 µM (inactive) | > 100 µM (inactive) | 78.5 µM (inactive) | > 100 µM (inactive) | > 100 µM (inactive) | > 100 µM (inactive) | > 100 µM (inactive) | > 100 µM (inactive) | 96.8 µM (inactive) | 14.1 µM (inactive) | > 100 µM (inactive) | > 100 µM (inactive) | > 100 µM (inactive) | > 100 µM (inactive) | > 100 µM (inactive) | > 100 µM (inactive) | > 100 µM (inactive) | > 100 µM (inactive) | > 100 µM (inactive) | > 100 |
| Cc1[nH]c(-c2ccccc2)c2nc(N(C)C)oc(=O)c12 | > 100 µM (inactive) | > 100 µM (inactive) | > 100 µM (inactive) | > 100 µM (inactive) | > 100 µM (inactive) | > 100 µM (inactive) | > 100 µM (inactive) | > 100 µM (inactive) | > 100 µM (inactive) | > 100 µM (inactive) | > 100 µM (inactive) | > 100 µM (inactive) | > 100 µM (inactive) | > 100 µM (inactive) | > 100 µM (inactive) | > 100 µM (inactive) | > 100 µM (inactive) | > 100 µM (inactive) | > 100 µM (inactive) | > 100 |
| CO[C@@H]1C=C[C@@]23c4cc5c(cc4C(O)N(CC2O)C3C1)OCO5 (stereo not given in full) | 2.62 µM (inactive) | 3.78 µM (inactive) | 6.97 µM (inactive) | 1.8 µM (inactive) | 3.52 µM (inactive) | 2.99 µM (inactive) | 3.3 µM (inactive) | 4.33 µM (inactive) | 7.36 µM (inactive) | 2.82 µM (inactive) | 3.66 µM (inactive) | 3.35 µM (inactive) | 4.29 µM (inactive) | 2.82 µM (inactive) | 3.86 µM (inactive) | 3.13 µM (inactive) | 4.43 µM (inactive) | 3.21 µM (inactive) | 3.68 µM (inactive) | 3.8 |
| CN(C)CCn1c(=O)c2ccc(NCCNCCO)c3c(=O)c4ccccc4n(c1=O)c23 | 0.249 µM (active) | 0.0596 µM (active) | 0.336 µM (active) | < 0.01 µM (active) | 0.0341 µM (active) | 0.423 µM (active) | 0.182 µM (active) | 0.027 µM (active) | 0.0471 µM (active) | 0.0445 µM (active) | 0.0581 µM (active) | < 0.0121 µM (active) | 0.0342 µM (active) | < 0.01 µM (active) | 0.231 µM (active) | 0.0467 µM (active) | 0.0287 µM (active) | 0.0149 µM (active) | 0.126 µM (active) | 0.279 |

— ChEMBL document CHEMBL1201862, “PubChem BioAssay data set” (2004)
